These results are taken from article PMC6321475, “Synthesis and Evaluation of the 4-Substituted 2-Hydroxy-5-Iodochalcones and Their 7-Substituted 6-Iodoflavonol Derivatives for Inhibitory Effect on Cholinesterases and β-Secretase” (International Journal of Molecular Sciences, 2018).

Like-named read-outs stand apart in the source and are kept apart here. Where only a bound is given, the exact number is not on record here.

What all share (format): biochemical
Assay [1] has as its target acetylcholinesterase (AChE) (Homo sapiens, UniProt P22303). The assay can be described thus: biochemical.
In assay [2] the target is butyrylcholinesterase (BChE) (Homo sapiens, UniProt P06276). The assay can be described thus: biochemical.
The target of a further assay is T1, BACE-1 (Homo sapiens, UniProt P56817).
T1 construct: purchased Pan Vera; host or cells: baculovirus-expressed
Nature of the assay: In vitro BACE-1 inhibitory FRET assay. The conditions noted are these: 60 min at 25 °C, pH 4.5.

Where [3] appears, read: mean ± SD, three independent experiments.

One may read the IC50 as the concentration that inhibits the measured activity by half.

butyrylcholinesterase (BChE), sequence (P06276 29-602): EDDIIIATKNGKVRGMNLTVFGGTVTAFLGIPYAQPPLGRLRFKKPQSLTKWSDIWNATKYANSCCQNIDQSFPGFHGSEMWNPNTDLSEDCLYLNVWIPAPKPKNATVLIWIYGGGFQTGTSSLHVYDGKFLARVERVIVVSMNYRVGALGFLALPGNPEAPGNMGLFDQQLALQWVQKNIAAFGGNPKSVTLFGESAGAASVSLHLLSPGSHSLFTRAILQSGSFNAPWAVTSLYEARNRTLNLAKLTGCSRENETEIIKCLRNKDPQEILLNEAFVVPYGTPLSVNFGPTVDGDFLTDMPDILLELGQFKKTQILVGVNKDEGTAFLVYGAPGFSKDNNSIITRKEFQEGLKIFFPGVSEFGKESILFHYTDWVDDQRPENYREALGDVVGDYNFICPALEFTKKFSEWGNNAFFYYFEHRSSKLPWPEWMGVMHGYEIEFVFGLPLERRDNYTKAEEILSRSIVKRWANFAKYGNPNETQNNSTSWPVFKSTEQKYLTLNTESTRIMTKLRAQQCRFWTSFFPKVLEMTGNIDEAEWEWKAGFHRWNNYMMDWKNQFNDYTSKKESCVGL
acetylcholinesterase (AChE), sequence (P22303 32-614): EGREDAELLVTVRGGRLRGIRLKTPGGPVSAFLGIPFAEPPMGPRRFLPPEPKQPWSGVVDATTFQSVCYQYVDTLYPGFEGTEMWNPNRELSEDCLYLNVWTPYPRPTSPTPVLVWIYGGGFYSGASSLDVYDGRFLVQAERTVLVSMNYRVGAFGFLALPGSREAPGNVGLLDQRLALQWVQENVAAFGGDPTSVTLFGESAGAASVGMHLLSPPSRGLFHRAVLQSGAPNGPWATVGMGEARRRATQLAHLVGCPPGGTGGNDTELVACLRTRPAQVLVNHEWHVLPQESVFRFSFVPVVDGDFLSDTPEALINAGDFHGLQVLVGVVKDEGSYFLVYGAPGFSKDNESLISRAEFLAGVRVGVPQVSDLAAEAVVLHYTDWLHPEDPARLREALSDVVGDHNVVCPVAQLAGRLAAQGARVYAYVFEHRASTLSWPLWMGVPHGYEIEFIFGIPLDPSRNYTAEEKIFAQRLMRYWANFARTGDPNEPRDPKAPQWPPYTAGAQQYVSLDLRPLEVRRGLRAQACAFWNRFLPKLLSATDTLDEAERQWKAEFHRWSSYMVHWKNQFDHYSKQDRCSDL
T1 sequence (P56817 46-501): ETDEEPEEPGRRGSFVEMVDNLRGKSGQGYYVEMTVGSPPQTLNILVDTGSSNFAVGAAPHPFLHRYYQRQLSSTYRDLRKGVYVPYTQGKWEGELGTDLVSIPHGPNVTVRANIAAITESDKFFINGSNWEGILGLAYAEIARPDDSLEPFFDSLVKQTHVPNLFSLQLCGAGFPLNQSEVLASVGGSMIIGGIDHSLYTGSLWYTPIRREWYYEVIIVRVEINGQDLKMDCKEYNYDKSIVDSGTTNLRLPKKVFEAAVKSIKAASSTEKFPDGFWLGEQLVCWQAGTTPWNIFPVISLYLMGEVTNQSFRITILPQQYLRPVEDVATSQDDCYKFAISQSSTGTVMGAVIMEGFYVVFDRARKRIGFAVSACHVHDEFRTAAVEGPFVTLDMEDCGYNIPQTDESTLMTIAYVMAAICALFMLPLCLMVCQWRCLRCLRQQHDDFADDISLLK

As for `O=C(/C=C/c1ccccc1)c1cc(I)c(F)cc1O` [Compound 2a, (E)-1-(4-Fluoro-2-hydroxy-5-iodophenyl)-3-phenylpropenone], in assay [1], the “SI BChE/AChE” value turned out to be 0.72. For the same molecule, the results for the IC50 in assay [1] (setting [3]) and in assay [2] (setting [3]) were 38.78 ± 0.01 µM and 28.06 ± 0.1 µM, respectively. Also, the “SI AChE/BChE” value in assay [2] amounted to 1.38.

For `O=C(/C=C/c1ccc(F)cc1)c1cc(I)c(F)cc1O` [Compound 2b, (E)-1-(4-Fluoro-2-hydroxy-5-iodophenyl)-3-(4-fluorophenyl)propenone], in assay [1], the IC50 is 16.6 ± 0.03 µM and the “SI BChE/AChE” value was 1.19. Moreover, in assay [2], the IC50 was 19.73 ± 0.05 µM and the “SI AChE/BChE” value was found to be 0.84.

Consider `O=C(/C=C/c1ccc(Cl)cc1)c1cc(I)c(F)cc1O` [Compound 2c, (E)-3-(4-chlorophenyl)-1-(4-fluoro-2-hydroxy-5-iodophenyl)prop-2-en-1-one], for which the “SI BChE/AChE” value in assay [1] is on record as 1.39. For the same molecule, the IC50 in assay [1] (setting [3]) turned out to be 10.5 ± 0.08 µM; in assay [2] (setting [3]), 14.58 ± 0.14 µM. Besides, the “SI AChE/BChE” value in assay [2] stood at 0.72.

In the case of `COc1ccc(/C=C/C(=O)c2cc(I)c(F)cc2O)cc1` [Compound 2d, (E)-1-(4-Fluoro-2-hydroxy-5-iodophenyl)-3-(4-methoxyphenyl)propenone], in assay [1], it took 11 ± 0.3 µM to reach half-maximal inhibition (IC50) and the “SI BChE/AChE” value came out at 0.78. Also, in assay [2], the half-inhibitory concentration (IC50) amounted to 8.49 ± 0.05 µM and the “SI AChE/BChE” value came to 1.29.

For `O=C(/C=C/c1ccccc1)c1cc(I)c(Cl)cc1O` [Compound 2e, (E)-1-(4-Chloro-2-hydroxy-5-iodophenyl)-3-phenylpropenone], in assay [1], the 50% inhibitory concentration (IC50) was determined as 10.64 ± 0.07 µM and the “SI BChE/AChE” value is 2.37. In assay [2], this molecule had an IC50 of 25.2 ± 0.3 µM.

Take `O=C(/C=C/c1ccc(F)cc1)c1cc(I)c(Cl)cc1O` [Compound 2f, (E)-1-(4-Chloro-2-hydroxy-5-iodophenyl)-3-(4-fluorophenyl)propenone]: in assay [1], the “SI BChE/AChE” value came to 1.87. The concentration for half-maximal inhibition (IC50) is 9.57 ± 0.2 µM in assay [1] (setting [3]) and 17.86 ± 0.08 µM in assay [2] (setting [3]). For the same molecule, the “SI AChE/BChE” value in assay [2] is given as 0.54.

Turning to `O=C(/C=C/c1ccc(Cl)cc1)c1cc(I)c(Cl)cc1O` [Compound 2g, (E)-1-(4-Chloro-2-hydroxy-5-iodophenyl)-3-(4-chlorophenyl)propenone], the IC50 is 11 ± 0.06 µM in assay [1] and above 100 µM in assay [2].

Take `O=C(/C=C/c1ccccc1)c1cc(I)c(Br)cc1O` [Compound 2i, (E)-1-(4-Bromo-2-hydroxy-5-iodophenyl)-3-phenylpropenone]: in assay [1], the IC50 was determined as 58.14 ± 0.21 µM and the “SI BChE/AChE” value came to 0.24. In assay [2], the IC50 was determined as 14.11 ± 0.11 µM and the “SI AChE/BChE” value is 4.12.

Consider `O=C(/C=C/c1ccc(Cl)cc1)c1cc(I)c(Br)cc1O` [Compound 2k, (E)-1-(4-Bromo-2-hydroxy-5-iodophenyl)-3-(4-chlorophenyl)propenone], for which, in assay [1], the IC50 was 11.56 ± 0.05 µM and the “SI BChE/AChE” value is reported as 0.90. In assay [2], half-maximal inhibition (IC50) required 10.44 ± 0.09 µM and the “SI AChE/BChE” value amounted to 1.11.

With `COc1ccc(/C=C/C(=O)c2cc(I)c(Br)cc2O)cc1` [Compound 2l, (E)-1-(4-Bromo-2-hydroxy-5-iodophenyl)-3-(4-methoxyphenyl)propenone], in assay [1], the IC50 was determined as 10.51 ± 0.03 µM and the “SI BChE/AChE” value is 1.45. In addition, in assay [2], 15.25 ± 0.01 µM corresponded to half-maximal inhibition (IC50) and the “SI AChE/BChE” value turned out to be 0.69.

As to `COc1cc(O)c(C(=O)/C=C/c2ccccc2)cc1I` [Compound 2m, (E)-1-(2-Hydroxy-5-iodo-4-methoxyphenyl)-3-phenylprop-2-en-1-one], the “SI BChE/AChE” value in assay [1] was 0.95. The IC50 came to 10.01 ± 0.09 µM in assay [1] (setting [3]) and 9.52 ± 0.03 µM in assay [2] (setting [3]). Besides, in assay [2], the “SI AChE/BChE” value came to 1.05.

As to `COc1cc(O)c(C(=O)/C=C/c2ccc(F)cc2)cc1I` [Compound 2n, (E)-3-(4-Fluorophenyl)-1-(2-hydroxy-5-iodo-4-methoxyphenyl)prop-2-en-1-one], in assay [1], the “SI BChE/AChE” value worked out at 0.63. The IC50 in assay [1] (setting [3]) stood at 9.38 ± 0.07 µM; against BACE-1 it was 25.07 ± 0.1 µM; in assay [2] (setting [3]), 5.91 ± 0.05 µM. Moreover, the “SI AChE/BChE” value in assay [2] worked out at 1.59.

As for `COc1cc(O)c(C(=O)/C=C/c2ccc(Cl)cc2)cc1I` [Compound 2o, (E)-3-(4-Chlorophenyl)-1-(2-hydroxy-5-iodo-4-methoxyphenyl)prop-2-en-1-one], the “SI BChE/AChE” value in assay [1] was 1.05. The IC50 is 11.1 ± 0.12 µM in assay [1] (setting [3]) and 11.6 ± 0.17 µM in assay [2] (setting [3]). For the same molecule, in assay [2], the “SI AChE/BChE” value is listed as 0.95.

For the molecule `COc1ccc(/C=C/C(=O)c2cc(I)c(OC)cc2O)cc1` [Compound 2p, (E)-1-(2-Hydroxy-5-iodo-4-methoxyphenyl)-3-(4-methoxyphenyl)prop-2-en-1-one], the “SI BChE/AChE” value in assay [1] is 0.45. Besides, the results for the IC50 (in assay [1] (setting [3]); on BACE-1; in assay [2] (setting [3])) were 10.96 ± 0.03 µM, 70.79 ± 0.2 µM and 4.89 ± 0.02 µM, respectively. For the same molecule, the “SI AChE/BChE” value in assay [2] amounted to 2.24.

With `O=c1c(O)c(-c2ccccc2)oc2cc(F)c(I)cc12` [Compound 3a, 7-Flu.oro-3-hydroxy-6-iodo-2-phenyl-4H-chromen-4-one], in assay [1], the IC50 was determined as 29.71 ± 0.01 µM and the “SI BChE/AChE” value stood at 0.91. For the same molecule, in assay [2], 27.01 ± 0.06 µM corresponded to half-maximal inhibition (IC50) and the “SI AChE/BChE” value was found to be 1.10.

In the case of `O=c1c(O)c(-c2ccc(Cl)cc2)oc2cc(F)c(I)cc12` [Compound 3c, 2-(4-C.hlorophenyl)-7-fluoro-3-hydroxy-6-iodo-4H-chromen-4-one], in assay [1], the “SI BChE/AChE” value was found to be 10.8. Further, the IC50 came out at 3.45 ± 0.07 µM in assay [1] (setting [3]), 19.69 ± 0.05 µM against BACE-1 and 37.51 ± 0.08 µM in assay [2] (setting [3]). The “SI AChE/BChE” value in assay [2] is listed as 0.09.

Turning to `COc1ccc(-c2oc3cc(F)c(I)cc3c(=O)c2O)cc1` [Compound 3d, 7-Flu.oro-3-hydroxy-6-iodo-2-(4-methoxyphenyl)-4H-chromen-4-one], in assay [1], the half-inhibitory concentration (IC50) amounted to 58.18 ± 0.03 µM and the “SI BChE/AChE” value came to 0.50. In assay [2], half-maximal inhibition (IC50) was put at 29.41 ± 0.04 µM and the “SI AChE/BChE” value was determined as 1.98.

For `O=c1c(O)c(-c2ccccc2)oc2cc(Cl)c(I)cc12` [Compound 3e, 7-Chl.oro-3-hydroxy-6-iodo-2-phenyl-4H-chromen-4-one], in assay [1], half-maximal inhibition (IC50) required 47.85 ± 0.04 µM and the “SI BChE/AChE” value was found to be 0.14. Also, in assay [2], the IC50 came to 6.64 ± 0.03 µM and the “SI AChE/BChE” value was found to be 7.21.

For `O=c1c(O)c(-c2ccc(F)cc2)oc2cc(Cl)c(I)cc12` [Compound 3f, 7-Chl.oro-2-(4-fluorophenyl)-3-hydroxy-6-iodo-4H-chromen-4-one], in assay [1], the IC50 is 38.39 ± 0.02 µM and the “SI BChE/AChE” value worked out at 0.47. Also, in assay [2], 18.17 ± 0.1 µM corresponded to half-maximal inhibition (IC50) and the “SI AChE/BChE” value stood at 2.11.

Regarding `O=c1c(O)c(-c2ccc(Cl)cc2)oc2cc(Cl)c(I)cc12` [Compound 3g, 7-Chl.oro-2-(4-chlorophenyl)-3-hydroxy-6-iodo-4H-chromen-4-one], in assay [1], the IC50 was found to be 59.1 ± 0.05 µM and the “SI BChE/AChE” value came to 0.13. Also, in assay [2], half-maximal inhibition (IC50) was put at 7.69 ± 0.01 µM and the “SI AChE/BChE” value came out at 7.69.

With `COc1ccc(-c2oc3cc(Cl)c(I)cc3c(=O)c2O)cc1` [Compound 3h, 7-Chl.oro-3-hydroxy-6-iodo-2-(4-methoxyphenyl)-4H-chromen-4-one], the “SI BChE/AChE” value in assay [1] is 0.40. Also, the figures for the IC50 in assay [1] (setting [3]) and in assay [2] (setting [3]) were 14.33 ± 0.03 µM and 5.72 ± 0.01 µM, respectively. Moreover, the “SI AChE/BChE” value in assay [2] was 2.51.

Regarding `O=c1c(O)c(-c2ccccc2)oc2cc(Br)c(I)cc12` [Compound 3i, 7-Bro.mo-3-hydroxy-6-iodo-2-phenyl-4H-chromen-4-one], in assay [1], the IC50 came out at 9.96 ± 0.01 µM and the “SI BChE/AChE” value is recorded as 0.57. Moreover, in assay [2], the half-inhibitory concentration (IC50) came to 5.76 ± 0.04 µM and the “SI AChE/BChE” value is 1.73.

With `O=c1c(O)c(-c2ccc(F)cc2)oc2cc(Br)c(I)cc12` [Compound 3j, 7-Bro.mo-2-(4-fluorophenyl)-3-hydroxy-6-iodo-4H-chromen-4-one], in assay [1], the midpoint of inhibition, the IC50, lay at 11.16 ± 0.01 µM and the “SI BChE/AChE” value turned out to be 2.42. In assay [2], the IC50 amounted to 27.01 ± 0.07 µM and the “SI AChE/BChE” value is given as 0.41.

In the case of `O=c1c(O)c(-c2ccc(Cl)cc2)oc2cc(Br)c(I)cc12` [Compound 3k, 7-Bro.mo-2-(4-chlorophenyl)-3-hydroxy-6-iodo-4H-chromen-4-one], in assay [1], 29.24 ± 0.03 µM corresponded to half-maximal inhibition (IC50) and the “SI BChE/AChE” value worked out at 0.18. In assay [2], the midpoint of inhibition, the IC50, lay at 5.25 ± 0.01 µM and the “SI AChE/BChE” value was 5.57.

As to `COc1cc2oc(-c3ccccc3)c(O)c(=O)c2cc1I` [Compound 3m, 3-Hyd.roxy-6-iodo-7-methoxy-2-phenyl-4H-chromen-4-one], in assay [1], the midpoint of inhibition, the IC50, lay at 9.25 ± 0.09 µM and the “SI BChE/AChE” value is 1.14. Besides, in assay [2], half-maximal inhibition (IC50) was put at 10.5 ± 0.02 µM and the “SI AChE/BChE” value was 0.88.

As to `COc1cc2oc(-c3ccc(F)cc3)c(O)c(=O)c2cc1I` [Compound 3n, 2-(4-F.luorophenyl)-3-hydroxy-6-iodo-7-methoxy-4H-chromen-4-one], in assay [1], inhibition was half-maximal at 6.15 ± 0.01 µM (IC50) and the “SI BChE/AChE” value came out at 1.29. In assay [2], inhibition was half-maximal at 7.93 ± 0.06 µM (IC50) and the “SI AChE/BChE” value is 0.76.

Consider `COc1cc2oc(-c3ccc(Cl)cc3)c(O)c(=O)c2cc1I` [Compound 3o, 2-(4-C.hlorophenyl)-3-hydroxy-6-iodo-7-methoxy-4H-chromen-4-one], for which, in assay [1], inhibition was half-maximal at 55.27 ± 0.04 µM (IC50) and the “SI BChE/AChE” value turned out to be 0.24. In assay [2], 13.7 ± 0.14 µM corresponded to half-maximal inhibition (IC50) and the “SI AChE/BChE” value is 4.03.
